We go through 31 compounds from the supplement of paper PMC6965134.

A short description of this data set: TIMS collisional cross section (CCS, N2) of the lipid ion; higher = larger ion cross section. Conditions: ionization mode: positive, one isomer drawn.

± gives the standard deviation of the averaged measurements.

As to `CCCCCCCCCCCCC/C=C/[C@@H](O)[C@H](CO[C@@H]1O[C@H](CO)[C@@H](O)C(O)C1O)NC(=O)CCCCCCCCCCCCCCCCCCCCC` (some centres undefined) [GlcCer d18:1_22:0@] (ion (formula + adduct): [C46H89NO8+H] 1+), the “TIMS collisional cross section” value stood at 298.3 Å² (sample type: HeLa), 298.7 Å² (sample type: Liver) and 298.1 Å² (sample type: plasma).
The like results for `CCCCCCC/C=C\CCCCCCCC(=O)O[C@@H](COC(=O)CCCCCCC/C=C\CCCCCCCC)COC(=O)CCCCCCCCCCCCCCC` [TG 16:0_17:1_18:1] (ion (formula + adduct): [C54H100O6+NH4] 1+) were, in that order, 319.4 Å², 319.35 ± 0.21 Å² and 319.3 Å².
For the compound `CC/C=C\C/C=C\C/C=C\C/C=C\C/C=C\C/C=C\CCC(=O)O[C@H](COC(=O)CCCCCCCCCCCCCC)COP(=O)([O-])OCC[N+](C)(C)C` [PC 15:0@_22:6] (ion (formula + adduct): [C45H78NO8P+H] 1+), under “sample type: plasma”, the “TIMS collisional cross section” value is recorded as 288.2 Å².
As to `CC/C=C\C/C=C\C/C=C\C/C=C\C/C=C\C/C=C\CCC(=O)OC[C@@H](COC(=O)CCC/C=C\C/C=C\C/C=C\C/C=C\CCCCC)OC(=O)CCC/C=C\C/C=C\C/C=C\C/C=C\CCCCC` [TG 20:4_20:4_22:6] (ion (formula + adduct): [C65H98O6+NH4] 1+), the “TIMS collisional cross section” value (sample type: HeLa) is recorded as 333.7 Å².
As for `CCCCCCCC/C=C\CCCCCCCC(=O)O[C@@H](CO)COC(=O)CCCCCCCCCCCCCCCC` [DG 17:0_18:1_0:0] (ion (formula + adduct): [C38H72O5+NH4] 1+), the “TIMS collisional cross section” value was 265.7 Å² (sample type: HeLa) and 266 Å² (sample type: Liver).
Turning to `CCCCC/C=C\C/C=C\C/C=C\CCCCC(=O)O[C@H](COC(=O)CCCCCCC/C=C\CCCCCC)COP(=O)([O-])OCC[N+](C)(C)C` [PC 16:1@_18:3] (ion (formula + adduct): [C42H76NO8P+H] 1+), the “TIMS collisional cross section” value came to 279.2 Å² (sample type: HeLa) and 280.6 Å² (sample type: plasma).
Turning to `CCCC/C=C\CCCCCCCC(=O)O[C@@H](COC(=O)CCCCCCC/C=C\CCCCCC)COC(=O)CCCCCCCCCCC` [TG 12:0_14:1_16:1] (ion (formula + adduct): [C45H82O6+NH4] 1+), the “TIMS collisional cross section” value (sample type: HeLa) is reported as 290.3 Å².
Take `CCCCC/C=C\C/C=C\C/C=C\C/C=C\CCCCCC(=O)OC[C@@H](COC(=O)CCCCCCC/C=C\C/C=C\CCCCC)OC(=O)CCCCCCCCC/C=C\C/C=C\CCCCC` [TG 18:2_20:2_22:4] (ion (formula + adduct): [C63H106O6+NH4] 1+): the “TIMS collisional cross section” value (sample type: Liver) is 335.7 Å².
For the compound `CCCCCCCCCCCCC/C=C/[C@@H](O)[C@H](COP(=O)([O-])OCC[N+](C)(C)C)NC(=O)CCCCCCCCCCCCCCCCCCCCCCC` [SM d18:1_24:0@] (ion (formula + adduct): [C47H95N2O6P+H] 1+), the “TIMS collisional cross section” value is 308.3 Å² (sample type: HeLa) and 308.1 Å² (sample type: plasma).
As for `CCCCCCCC/C=C\CCCCCCCC(=O)OC[C@H](COP(=O)(O)OCCN(C)C)OC(=O)CCCCCCC/C=C\CCCCCCCC` [PE 18:1_18:1] (ion (formula + adduct): [C43H82NO8P+Na] 1+), under “sample type: Liver”, the “TIMS collisional cross section” value stood at 290.8 Å².
For `CCCC/C=C\CCCCCCCC(=O)OC[C@H](COC(=O)CCCCCCCCCCCCCCCCC)OC(=O)CCCCCCC/C=C\CCCCCC` [TG 14:1_16:1_18:0] (ion (formula + adduct): [C51H94O6+NH4] 1+), where the note is “sample type: HeLa”, the “TIMS collisional cross section” value was determined as 309.6 Å².
As for `CCCCC/C=C\C/C=C\CCCCCCCC(=O)OC[C@@H](COC(=O)CCCCCCCCCCCCCCCC)OC(=O)CCCCCCC/C=C\CCCCCCCC` [TG 17:0_18:1_18:2] (ion (formula + adduct): [C56H102O6+NH4] 1+), the “TIMS collisional cross section” value is given as 322.9 Å² (sample type: Liver) and 323.2 Å² (sample type: plasma).
As for `CCCCC/C=C\C/C=C\CCCCCCCC(=O)OC[C@@H](COC(=O)CCCCCCC/C=C\CCCCCCC)OC(=O)CCCCCCC/C=C\C/C=C\CCCCC` [TG 17:1_18:2_18:2] (ion (formula + adduct): [C56H98O6+NH4] 1+), the “TIMS collisional cross section” value came to 317.5 Å² (sample type: Liver) and 318.3 Å² (sample type: plasma).
For `CCCCCCCC/C=C\C/C=C\C/C=C\CCCC(=O)O[C@H](COC(=O)CCCCCCCCCCCCCCC)COP(=O)([O-])OCC[N+](C)(C)C` [PC 16:0@_20:3] (ion (formula + adduct): [C44H82NO8P+H] 1+), the “TIMS collisional cross section” value (sample type: Liver) came out at 289.8 Å².
As for `CCCCC/C=C\C/C=C\CCCCCCCC(=O)OC[C@@H](COC(=O)CCCCCCCCCCCCC)OC(=O)CCCCCCCCCCCCCCC` [TG 14:0_16:0_18:2] (ion (formula + adduct): [C51H94O6+NH4] 1+), the “TIMS collisional cross section” value (sample type: Liver) is 308.9 Å².
As for `CCCCCCCC/C=C\CCCCCCCC(=O)OC[C@@H](O)COP(=O)(O)OCCN` [LPE 18:1] (ion (formula + adduct): [C23H46NO7P+H] 1+), the “TIMS collisional cross section” value was determined as 216.4 Å² (sample type: HeLa), 217 ± 2 Å² (sample type: Liver) and 216.93 ± 1.3 Å² (sample type: plasma).
`CCCCC/C=C\C/C=C\C/C=C\C/C=C\C/C=C\CCC(=O)O[C@H](COC(=O)CCCCCCCCCCCCCCCCC)COP(=O)([O-])OCC[N+](C)(C)C` [PC 18:0_22:5] (ion (formula + adduct): [C48H86NO8P+H] 1+): the “TIMS collisional cross section” value was determined as 299.3 Å² (sample type: Liver) and 301 Å² (sample type: plasma).
For the compound `CCCCC/C=C\CCCCCCCC(=O)OC[C@H](COC(=O)CCCCCCC/C=C\CCCCCC)OC(=O)CCCCCCC/C=C\CCCCCC` [TG 15:1_16:1_16:1] (ion (formula + adduct): [C50H90O6+NH4] 1+), under “sample type: HeLa”, the “TIMS collisional cross section” value is recorded as 305 Å².
Take `[C@]12(CC=C3C[C@@H](O)CC[C@]3(C)[C@@]1([H])CC[C@]1(C)[C@@]([H])([C@@](C)([H])CC[C@@H]3O[C@@]3(C)C)CC[C@@]21[H])[H]` [24,25-epoxy-cholesterol] (ion (formula + adduct): [C27H44O2+H] 1+): the “TIMS collisional cross section” value (sample type: HeLa) came out at 210.4 Å², the “TIMS collisional cross section” value (sample type: Liver) was determined as 209.6 Å² and the “TIMS collisional cross section” value (sample type: plasma) was 210.5 Å².
For `CCCCCCC/C=C\CCCCCCCC(=O)OC[C@H](COC(=O)CCCCCCC/C=C\CCCCCCCC)OC(=O)CCCCCCCCCCCCCCCCC` [TG 17:1_18:0_18:1] (ion (formula + adduct): [C56H104O6+NH4] 1+), the “TIMS collisional cross section” value (sample type: Liver) is 325.6 Å².
In the case of `CCCCCCCC/C=C\CCCCCCCCCC(=O)OC[C@@H](COC(=O)CCCCCCCCCCCCCCC)OC(=O)CCCCCCC/C=C\CCCCCCCC` [TG 16:0_18:1_20:1] (ion (formula + adduct): [C57H106O6+NH4] 1+), the “TIMS collisional cross section” value (sample type: HeLa) came to 328.4 Å².
Turning to `CCCCCCCC/C=C\CCCCCCCCCC(=O)O[C@H](CO/C=C\CCCCCCCCCCCCCC)COP(=O)(O)OCCN` [PE P- 16:0@_20:1] (ion (formula + adduct): [C41H80NO7P+H] 1+), the “TIMS collisional cross section” value (sample type: HeLa) was determined as 280.8 Å².
Turning to `C1C[C@H](O)C(CO)[C@]2([H])CCC3=C([C@]21C)CC[C@]1(C)[C@@]([H])([C@H](C)CC/C=C(/C)\C)CC[C@]13[H]` (some centres undefined) [zymosterol intermediate 1a] (ion (formula + adduct): [C28H46O2+H] 1+), for the setting “sample type: Liver”, the “TIMS collisional cross section” value was 219 Å².
As to `CCCCC/C=C\C/C=C\C/C=C\C/C=C\C/C=C\CCC(=O)O[C@H](COCCCCCCCCCCCCCCCCCC)COP(=O)([O-])OCC[N+](C)(C)C` [PC O- 18:0@_22:5] (ion (formula + adduct): [C48H88NO7P+H] 1+), under “sample type: HeLa”, the “TIMS collisional cross section” value is on record as 300.2 Å².
Still for that read-out and setting: for `CCCCC/C=C\CCCCCCCC(=O)OC[C@H](COP(=O)([O-])OCC[N+](C)(C)C)OC(=O)CCCCCCC/C=C\CCCCCC` [PC 15:1_16:1@] (ion (formula + adduct): [C39H74NO8P+H] 1+) the value was 272.8 Å².
With `CC/C=C\C/C=C\C/C=C\C/C=C\C/C=C\C/C=C\CCC(=O)OC[C@@H](COC(=O)CCCCCCCCCCCCCCC)OC(=O)CC/C=C\C/C=C\C/C=C\C/C=C\C/C=C\C/C=C\CC` [TG 16:0_22:6_22:6] (ion (formula + adduct): [C63H98O6+NH4] 1+), the “TIMS collisional cross section” value (sample type: Liver) is on record as 331.6 Å².
Turning to `CCCCC/C=C\C/C=C\CCCCCCCC(=O)OC[C@H](COP(=O)(O)OCCN)OC(=O)CCCCCCCCC/C=C\CCCCCCCC` [PE 18:2_20:1] (ion (formula + adduct): [C43H80NO8P+Na] 1+), the “TIMS collisional cross section” value (sample type: Liver) is 284.2 Å².
Turning to `CCCCCCCC/C=C\CCCCCCCC(=O)O[C@H](CO/C=C\CCCCCCCCCCCCCC)COP(=O)(O)OCCN` [PE P- 16:0@_18:1] (ion (formula + adduct): [C39H76NO7P+H] 1+), the “TIMS collisional cross section” value (sample type: HeLa) is given as 274 Å², the “TIMS collisional cross section” value (sample type: Liver) came to 274.1 Å² and the “TIMS collisional cross section” value (sample type: plasma) was 274.1 Å².
On to `CCCCC/C=C\C/C=C\C/C=C\C/C=C\CCCC(=O)OC[C@@H](COC(=O)CCCCCCCCCCC)OC(=O)CCCCCCCCCCCCCCC` [TG 12:0_16:0_20:4] (ion (formula + adduct): [C51H90O6+NH4] 1+), for which, for the setting “sample type: plasma”, the “TIMS collisional cross section” value worked out at 307.4 Å².
Take `CCCCC/C=C\C/C=C\CCCCCCCC(=O)OC[C@@H](COC(=O)CCCCCCC/C=C\CCCCCCCC)OC(=O)CCCCCCC/C=C\CCCCCCCC` [TG 18:1_18:1_18:2] (ion (formula + adduct): [C57H102O6+NH4] 1+): the “TIMS collisional cross section” value (sample type: HeLa) worked out at 324.3 Å² and the “TIMS collisional cross section” value (sample type: plasma) was 324.25 ± 0.35 Å².
On to `CC(C)CCC[C@@H](C)[C@H]1CC[C@H]2[C@@H]3C(=O)C=C4C=CCC[C@]4(C)[C@H]3CC[C@]12C` [3,5-cholestadien-7-one] (ion (formula + adduct): [C27H42O+H] 1+), for which the “TIMS collisional cross section” value is, setting by setting: (sample type: HeLa) 203.63 ± 0.75 Å²; (sample type: plasma) 203.1 Å².
